Values quoted from earlier work as cited in patent US20060153908A1, “Spherical pellet formulations” (priority 2002, published 2006).
Structures can show the parent of a compound that is named as a salt.

Conditions: in water

For COc1cccc(C2(O)CCCCC2CN(C)C)c1 (single isomer, unassigned) [Tramadol hydrochloride, (1R,2R or 1S,2S)-2-[(dimethylamino)methyl]-1-(3-methoxyphenyl)-cyclohexanol], which water solubility is on record?
The water solubility was “very water-soluble”.
